Measured values: US20090005424A9, “Composition and Method for Treating Fibrotic Diseases” (priority 2005, published 2009)
Marks after values point to notes of the source that are not given here.

Experiments:
Type in all cases: cell-based
[1] = test system: Rat Myocardiac Fibroblasts; experiment: MTT proliferation assay, rat myocardiac fibroblasts
Method: (§1) In the following examples, myocardiac fibroblasts, skin scar forming fibroblast and human peritoneal mesothelial cells are primary cultures prepared according to common procedure. Other cells are commercially purchased. 1-(3-fluorophenyl)-5-methyl-2(1H)-pyridone (AKF-PD) is prepared as a suspension in 5% carboxymethylcellulose.
(§2) Cell proliferation was measured by MTT assay. DMEM with 10% fetal serum was used as cell culture medium. The cells were prepared in suspension (1×10^5/ml), and 100 μL of the suspension was transferred to each well of a 96 wells plate. Once the cells were attached to the plastic, the culture was changed to serum free medium and incubated for another 24 hours. Then, the serum free medium was aspirated, and various concentrations of 1-(3′-fluorophenyl)-5-methyl-2(1H)-pyridone (AKF-PD) or PIRFENIDONE (PFD) in 10% serum medium were added into each well with 5 replicates for each concentration. The cells were stained with MTT (10 μL per well) at 12, 24, or 48 hours post drug treatment. After 4 hrs of incubation, the medium with MTT was aspirated from each well. One hundred μL MTT solvent was added to each well for 15 min, and the dissolved MTT was measured with a plate reader at 570 nm.

[2] = test system: Rat Pulmonary Fibroblasts; experiment: MTT proliferation assay, rat pulmonary fibroblasts
Method: as §2, with “(AKF-PD) or 1-(3′-bromophenyl)-5-Methyl-2(1H)-Pyridone or PIRFENIDONE (PFD)” for “(AKF-PD) or PIRFENIDONE (PFD)”, “well) at 24, or” for “well) at 12, 24, or”

[3] = test system: Human Stellate Cells; experiment: MTT proliferation assay, human stellate cells
Method: as §2, with “MTT was then measured with” for “MTT was measured with”

[4] = test system: Kidney Fibroblast; experiment: MTT proliferation assay, mouse kidney fibroblast
Method: Cell proliferation was measured by MTT assay. DMEM with 10% fetal serum was used as cell culture medium. The cells were prepared in suspension (1×10^5/ml), and 100 μL of the suspension was transferred to each well of a 96 wells plate. Once the cells were attached to the plastic, the culture was changed to serum free medium and continued for another 24 hours. The serum free medium was aspirated, and various concentrations of 1-(3′-fluorophenyl)-5-methyl-2(1H)-pyridone (AKF-PD) 1-(3′-bromophenyl)-5-methyl-2(1H)-pyridone (AKF-BR) or PIRFENIDONE (PFD) in 10% serum medium were added into each well with 5 replicates for each concentration. The cells were stained with MTT (10 μL per well) at 24, 48, and 72 hours post drug treatment. After 4 hrs of incubation, the medium with MTT was aspirated from each well. One hundred μL MTT solvent was added to each well for 15 min. The dissolved MTT was then measured with a plate reader at 570 nm.

[5] = test system: Human Skin Scar Forming Fibroblasts; experiment: MTT proliferation assay, human skin scar forming fibroblasts
Method: as §1, §2

SMILES: Cc1ccc(=O)n(-c2ccccc2)c1 [PFD, 5-methyl-1-phenyl-2(1H)-pyridone, reference compound]
- Optical Density at 570 nm ([1]; 100 μg/ml, 12 h): 0.330 ± 0.014
- Optical Density at 570 nm ([1]; 100 μg/ml, 24 h): 0.429 ± 0.009
- Optical Density at 570 nm ([1]; 100 μg/ml, 48 h): 0.654 ± 0.007*^+
- Optical Density at 570 nm ([1]; 500 μg/ml, 12 h): 0.329 ± 0.013
- Optical Density at 570 nm ([1]; 500 μg/ml, 24 h): 0.411 ± 0.006
- Optical Density at 570 nm ([1]; 500 μg/ml, 48 h): 0.612 ± 0.014***^++
- Optical Density at 570 nm ([1]; 1000 μg/ml, 12 h): 0.331 ± 0.009
- Optical Density at 570 nm ([1]; 1000 μg/ml, 24 h): 0.403 ± 0.010**^+
- Optical Density at 570 nm ([1]; 1000 μg/ml, 48 h): 0.597 ± 0.013***^+++
- Optical Density at 570 nm ([1]; 2500 μg/ml, 12 h): 0.329 ± 0.008
- Optical Density at 570 nm ([1]; 2500 μg/ml, 24 h): 0.392 ± 0.009**^+
- Optical Density at 570 nm ([1]; 2500 μg/ml, 48 h): 0.566 ± 0.027
- Optical Density at 570 nm ([2]; 100 μg/ml, 24 h): 0.2023 ± 0.0169
- Optical Density at 570 nm ([2]; 100 μg/ml, 48 h): 0.1864 ± 0.0530
- Optical Density at 570 nm ([2]; 500 μg/ml, 24 h): 0.1887 ± 0.0130
- Optical Density at 570 nm ([2]; 500 μg/ml, 48 h): 0.1459 ± 0.0255
- Optical Density at 570 nm ([2]; 1000 μg/ml, 24 h): 0.1797 ± 0.0166
- Optical Density at 570 nm ([2]; 1000 μg/ml, 48 h): 0.1269 ± 0.0302
- order of inhibitory effect ([2]; rat pulmonary fibroblasts): AKF-PD>AKF-BR>pirfenidone
- Optical Density at 570 nm ([3]; 100 μg/ml, 12 h): 0.206 ± 0.003
- Optical Density at 570 nm ([3]; 100 μg/ml, 24 h): 0.371 ± 0.001
- Optical Density at 570 nm ([3]; 100 μg/ml, 48 h): 0.447 ± 0.003
- Optical Density at 570 nm ([3]; 500 μg/ml, 12 h): 0.202 ± 0.001
- Optical Density at 570 nm ([3]; 500 μg/ml, 24 h): 0.345 ± 0.002
- Optical Density at 570 nm ([3]; 500 μg/ml, 48 h): 0.413 ± 0.001***^++
- Optical Density at 570 nm ([3]; 1000 μg/ml, 12 h): 0.201 ± 0.001
- Optical Density at 570 nm ([3]; 1000 μg/ml, 24 h): 0.330 ± 0.001***^++
- Optical Density at 570 nm ([3]; 1000 μg/ml, 48 h): 0.402 ± 0.001***^++
- Optical Density at 570 nm ([3]; 2500 μg/ml, 12 h): 0.198 ± 0.001
- Optical Density at 570 nm ([3]; 2500 μg/ml, 24 h): 0.278 ± 0.001***^+
- Optical Density at 570 nm ([3]; 2500 μg/ml, 48 h): 0.306 ± 0.002***^+++
- Optical Density at 570 nm ([4]; 100 μg/ml, 24 h): 0.5911 ± 0.1002
- Optical Density at 570 nm ([4]; 100 μg/ml, 48 h): 0.5844 ± 0.0171
- Optical Density at 570 nm ([4]; 100 μg/ml, 72 h): 0.5264 ± 0.1530
- Optical Density at 570 nm ([4]; 500 μg/ml, 24 h): 0.5877 ± 0.1204
- Optical Density at 570 nm ([4]; 500 μg/ml, 48 h): 0.5450 ± 0.0196
- Optical Density at 570 nm ([4]; 500 μg/ml, 72 h): 0.4798 ± 0.2355
- Optical Density at 570 nm ([4]; 1000 μg/ml, 24 h): 0.5798 ± 0.0149
- Optical Density at 570 nm ([4]; 1000 μg/ml, 48 h): 0.5272 ± 0.0229
- Optical Density at 570 nm ([4]; 1000 μg/ml, 72 h): 0.4269 ± 0.0302
- order of inhibitory effect ([4]; kidney fibroblast): AKF-PD>AKF-BR>pirfenidone
- Optical Density at 570 nm ([5]; 100 μg/ml, 12 h): 0.194 ± 0.004
- Optical Density at 570 nm ([5]; 100 μg/ml, 24 h): 0.250 ± 0.003
- Optical Density at 570 nm ([5]; 100 μg/ml, 48 h): 0.366 ± 0.006
- Optical Density at 570 nm ([5]; 500 μg/ml, 12 h): 0.191 ± 0.008
- Optical Density at 570 nm ([5]; 500 μg/ml, 24 h): 0.245 ± 0.004*^+
- Optical Density at 570 nm ([5]; 500 μg/ml, 48 h): 0.350 ± 0.003***^++
- Optical Density at 570 nm ([5]; 1000 μg/ml, 12 h): 0.190 ± 0.008
- Optical Density at 570 nm ([5]; 1000 μg/ml, 24 h): 0.330 ± 0.001*^++
- Optical Density at 570 nm ([5]; 1000 μg/ml, 48 h): 0.328 ± 0.004***^++
- Optical Density at 570 nm ([5]; 2500 μg/ml, 12 h): 0.193 ± 0.004
- Optical Density at 570 nm ([5]; 2500 μg/ml, 24 h): 0.278 ± 0.001***^+++
- Optical Density at 570 nm ([5]; 2500 μg/ml, 48 h): 0.264 ± 0.005
